According to ChEMBL document CHEMBL1201862, “PubChem BioAssay data set” (2004):
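Growth conditions: 96-well plates. Treatment: test compound, 48 hours, 5 concentrations. Analysis: linear interpolation between bracketing concentrations; unreached endpoints set to highest concentration. Here, GI50 denotes the concentration required for 50% inhibition of growth.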 Activity calls are given as the source filed them. Rule as the data show it: active = GI50 up to about 1.1 µM and inactive = higher.

Legend:
Test in all cases: NCI anticancer screen, dose series, 48 h
IGROV-1 = test system: IGROV-1
A549 = test system: A549
DU-145 = test system: DU-145
U-251 = test system: U-251
SF-295 = test system: SF-295
UACC-257 = test system: UACC-257
MDA-MB-231 = test system: MDA-MB-231
SK-MEL-2 = test system: SK-MEL-2
HCC 2998 = test system: HCC 2998
MCF7 = test system: MCF7
SNB-19 = test system: SNB-19
HT-29 = test system: HT-29
PC-3 = test system: PC-3
Malme-3M = test system: Malme-3M
OVCAR-3 = test system: OVCAR-3
NCI-H522 = test system: NCI-H522
CCRF-CEM = test system: CCRF-CEM
OVCAR-5 = test system: OVCAR-5
786-0 = test system: 786-0
Hs-578T = test system: Hs-578T

Row | SMILES | GI50 (IGROV-1) | GI50 (A549) | GI50 (DU-145) | GI50 (U-251) | GI50 (SF-295) | GI50 (UACC-257) | GI50 (MDA-MB-231) | GI50 (SK-MEL-2) | GI50 (HCC 2998) | GI50 (MCF7) | GI50 (SNB-19) | GI50 (HT-29) | GI50 (PC-3) | GI50 (Malme-3M) | GI50 (OVCAR-3) | GI50 (NCI-H522) | GI50 (CCRF-CEM) | GI50 (OVCAR-5) | GI50 (786-0) | GI50 (Hs-578T)
1 | CN(C)CCn1c(=O)c2ccc(NCCCN(C)CCCNc3ccc4c(=O)n(CCN(C)C)c(=O)n5c6ccc([N+](=O)[O-])cc6c(=O)c3c45)c3c(=O)c4cc([N+](=O)[O-])ccc4n(c1=O)c23 | < 0.01 µM (active) | < 0.01 µM (active) | < 0.01 µM (active) | < 0.01 µM (active) | 0.0136 µM (active) | 0.069 µM (active) | < 0.021 µM (active) | 0.0346 µM (active) | < 0.01 µM (active) | < 0.01 µM (active) | < 0.01 µM (active) | < 0.01 µM (active) | < 0.01 µM (active) | 0.0594 µM (active) | < 0.033 µM (active) | < 0.01 µM (active) | < 0.01 µM (active) | < 0.037 µM (active) | < 0.01 µM (active) | 0.0178 µM (active)
2 | Cc1ccc(NCCCN2CCN(CCCNc3ccc(C)c4sc5ccccc5c(=O)c34)CC2)c2c(=O)c3ccccc3sc12 | > 100 µM (inactive) | > 100 µM (inactive) | 71.6 µM (inactive) | 67.6 µM (inactive) | 55.6 µM (inactive) | > 100 µM (inactive) | > 100 µM (inactive) | 23.4 µM (inactive) | > 100 µM (inactive) | > 100 µM (inactive) | > 100 µM (inactive) | > 100 µM (inactive) | 21.4 µM (inactive) | > 100 µM (inactive) | > 100 µM (inactive) | > 100 µM (inactive) | > 100 µM (inactive) | > 100 µM (inactive) | 95.5 µM (inactive) | 37.2 µM (inactive)
3 | NS(=O)(=O)c1ccc(NNc2c3ccccc3nc3ccccc23)cc1 | 11.2 µM (inactive) | 15.3 µM (inactive) | 14.3 µM (inactive) | 11.7 µM (inactive) | 12 µM (inactive) | 13.2 µM (inactive) | 15.6 µM (inactive) | 13.5 µM (inactive) | 12.2 µM (inactive) | 10.9 µM (inactive) | 14.7 µM (inactive) | 7.73 µM (inactive) | 11.5 µM (inactive) | 11.2 µM (inactive) | 10.2 µM (inactive) | 11.4 µM (inactive) | 6.28 µM (inactive) | 12.8 µM (inactive) | 12.6 µM (inactive) | 14.5 µM (inactive)
4 | C=C1C(=O)OC2/C=C(/CO)C3(O)CC(O)C(C)(CC(OC(=O)/C(C)=C/C)C12)O3 (stereo not given) | 17.2 µM (inactive) | 32.8 µM (inactive) | 18.5 µM (inactive) | 18.5 µM (inactive) | 36.3 µM (inactive) | 15.4 µM (inactive) | 15.3 µM (inactive) | 22.4 µM (inactive) | 10.6 µM (inactive) | 6.73 µM (inactive) | 36.5 µM (inactive) | 8.09 µM (inactive) | 26.3 µM (inactive) | 10.2 µM (inactive) | 10.2 µM (inactive) | 2.4 µM (inactive) | 2.1 µM (inactive) | 21 µM (inactive) | 10.1 µM (inactive) | 53.5 µM (inactive)
5 | COc1ccc(OCC(=N/NC(=O)c2ccncc2)/N=C/c2ccncc2)cc1 | 91.2 µM (inactive) | > 100 µM (inactive) | > 100 µM (inactive) | > 100 µM (inactive) | 42.9 µM (inactive) | > 100 µM (inactive) | > 100 µM (inactive) | > 100 µM (inactive) | > 100 µM (inactive) | 54.6 µM (inactive) | > 100 µM (inactive) | 57 µM (inactive) | > 100 µM (inactive) | > 100 µM (inactive) | 48.6 µM (inactive) | 32.2 µM (inactive) | > 100 µM (inactive) | > 100 µM (inactive) | > 100 µM (inactive) | > 100 µM (inactive)
6 | CCCCCCCCC/C=C/C=C/C(=O)NCC(=O)NC1C(O)C(O)C(Nc2ncnc3[nH]cnc23)OC1C(O)CO (stereo not given) | 4.88e-05 µM (active) | 0.00397 µM (active) | 0.00388 µM (active) | 0.00149 µM (active) | 0.00796 µM (active) | 0.00444 µM (active) | 0.0538 µM (active) | 0.0056 µM (active) | 0.000509 µM (active) | 0.668 µM (active) | 0.00175 µM (active) | 0.0011 µM (active) | 0.00023 µM (active) | 0.00242 µM (active) | 0.000601 µM (active) | 0.00532 µM (active) | 2.39 µM (inactive) | 0.00174 µM (active) | 0.00217 µM (active) | 0.00432 µM (active)
7 | COC(C(=O)C(O)C(C)O)C1CC2C=C3C=C(OC4CC(OC5CC(O)C(OC)C(C)O5)C(OC(C)=O)C(C)O4)C(C)C(O)=C3C(O)=C2C(=O)C1OC1CC(OC2CC(OC3CC(C)(O)C(OC(=O)C(C)C)C(C)O3)C(O)C(C)O2)C(O)C(C)O1 (stereo not given) | < 0.01 µM (active) | < 0.01 µM (active) | < 0.01 µM (active) | < 0.01 µM (active) | < 0.01 µM (active) | < 0.01 µM (active) | < 0.01 µM (active) | < 0.01 µM (active) | < 0.01 µM (active) | < 0.01 µM (active) | < 0.01 µM (active) | < 0.01 µM (active) | < 0.01 µM (active) | < 0.01 µM (active) | < 0.01 µM (active) | < 0.01 µM (active) | < 0.01 µM (active) | < 0.01 µM (active) | < 0.01 µM (active) | < 0.01 µM (active)
8 | C=C1CC2(CC(c3ccccc3C)OC(c3ccccc3C)C2)OC1=O (stereo not given) | 1.69 µM (inactive) | 8.47 µM (inactive) | 12.1 µM (inactive) | 12.9 µM (inactive) | 15.8 µM (inactive) | 1.78 µM (inactive) | 1.6 µM (inactive) | 2 µM (inactive) | 2.25 µM (inactive) | 1.85 µM (inactive) | 16.3 µM (inactive) | 1.82 µM (inactive) | 2.21 µM (inactive) | 1.71 µM (inactive) | 1.78 µM (inactive) | 1.73 µM (inactive) | 2.04 µM (inactive) | 13.2 µM (inactive) | 1.96 µM (inactive) | 2.24 µM (inactive)
9 | CCN(CC)CCSc1c(C(C)=O)c(=O)n(-c2ccccc2)c(=S)n1-c1ccccc1 | 13 µM (inactive) | 13.8 µM (inactive) | 3.08 µM (inactive) | 17.7 µM (inactive) | > 78 µM (inactive) | 9.98 µM (inactive) | 13.1 µM (inactive) | 15.5 µM (inactive) | 11.9 µM (inactive) | 3.18 µM (inactive) | 21.1 µM (inactive) | 16.7 µM (inactive) | 4.04 µM (inactive) | 6.1 µM (inactive) | 2.81 µM (inactive) | 2.21 µM (inactive) | 0.571 µM (active) | 21 µM (inactive) | 1.8 µM (inactive) | 23.4 µM (inactive)
10 | CC1C(=O)OC2CC[N+]3([O-])CC=C(COC(=O)C(C)(O)C1(C)O)C23 (stereo not given) | > 100 µM (inactive) | > 100 µM (inactive) | > 100 µM (inactive) | > 100 µM (inactive) | > 100 µM (inactive) | > 100 µM (inactive) | > 100 µM (inactive) | > 100 µM (inactive) | > 100 µM (inactive) | > 100 µM (inactive) | > 100 µM (inactive) | > 100 µM (inactive) | > 100 µM (inactive) | > 100 µM (inactive) | > 100 µM (inactive) | > 100 µM (inactive) | > 100 µM (inactive) | > 100 µM (inactive) | > 100 µM (inactive) | > 100 µM (inactive)
